Experimental data as given in the supplement of paper PMC10307832.

Tests used:
Assay in all cases: relative viability (nuclei count vs DMSO), 5 days (fraction); higher = more cells survive
Dovitinib + Pemetrexed = compound: CN1CCN(c2ccc3nc(-c4c(N)c5c(F)cccc5[nH]c4=O)[nH]c3c2)CC1 [Dovitinib] + Nc1nc2[nH]cc(CCc3ccc(C(=O)N[C@@H](CCC(=O)O)C(=O)O)cc3)c2c(=O)[nH]1 [Pemetrexed] (partner 0.2 µM)
How it was run: (§1)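 Lung cancer cell lines were pin-tool dosed in 1536-well plates on the day after seeding, with either a lone drug or a fixed anchor-drug dose plus five library-drug doses (not always all listed) in √10 steps. Nuclei were counted on 4× images after 5 days. Relative viability is the ratio of treated-well to vehicle-well nuclei counts, with each value a median of duplicate plates.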

Dovitinib + Navitoclax = compound: CN1CCN(c2ccc3nc(-c4c(N)c5c(F)cccc5[nH]c4=O)[nH]c3c2)CC1 [Dovitinib] + CC1(C)CCC(c2ccc(Cl)cc2)=C(CN2CCN(c3ccc(C(=O)NS(=O)(=O)c4ccc(N[C@H](CCN5CCOCC5)CSc5ccccc5)c(S(=O)(=O)C(F)(F)F)c4)cc3)CC2)C1 [Navitoclax] (partner 0.5 µM)
How it was run: as §1

Dovitinib + Phenformin = compound: CN1CCN(c2ccc3nc(-c4c(N)c5c(F)cccc5[nH]c4=O)[nH]c3c2)CC1 [Dovitinib] + N=C(N)NC(=N)NCCc1ccccc1 [Phenformin] (partner 250 µM)
How it was run: as §1

Dovitinib + Trametinib = compound: CN1CCN(c2ccc3nc(-c4c(N)c5c(F)cccc5[nH]c4=O)[nH]c3c2)CC1 [Dovitinib] + CC(=O)Nc1cccc(-n2c(=O)n(C3CC3)c(=O)c3c(Nc4ccc(I)cc4F)n(C)c(=O)c(C)c32)c1 [Trametinib] (partner 0.02 µM)
How it was run: as §1

Cell Line	relative viability (Dovitinib + Pemetrexed; first compound 0.02 µM)	relative viability (Dovitinib + Pemetrexed; first compound 0.06325 µM)	relative viability (Dovitinib + Pemetrexed; first compound 0.2 µM)	relative viability (Dovitinib + Pemetrexed; first compound 0.6325 µM)	relative viability (Dovitinib + Pemetrexed; first compound 2 µM)	relative viability (Dovitinib + Navitoclax; first compound 0.02 µM)	relative viability (Dovitinib + Navitoclax; first compound 0.06325 µM)	relative viability (Dovitinib + Navitoclax; first compound 0.2 µM)	relative viability (Dovitinib + Navitoclax; first compound 0.6325 µM)	relative viability (Dovitinib + Navitoclax; first compound 2 µM)	relative viability (Dovitinib + Phenformin; first compound 0.02 µM)	relative viability (Dovitinib + Phenformin; first compound 0.06325 µM)	relative viability (Dovitinib + Phenformin; first compound 0.2 µM)	relative viability (Dovitinib + Phenformin; first compound 0.6325 µM)	relative viability (Dovitinib + Phenformin; first compound 2 µM)	relative viability (Dovitinib + Trametinib; first compound 0.02 µM)	relative viability (Dovitinib + Trametinib; first compound 0.06325 µM)	relative viability (Dovitinib + Trametinib; first compound 0.2 µM)	relative viability (Dovitinib + Trametinib; first compound 0.6325 µM)	relative viability (Dovitinib + Trametinib; first compound 2 µM)
NCI-H1944	0.583	0.649	0.677	0.739	0.597	1.01	0.995	1.02	1.08	1.1	0.216	0.198	0.244	0.202	0.217	0.391	0.395	0.409	0.395	0.36
HCC-78	0.914	0.934	0.931	0.889	0.865	0.784	–	0.827	0.754	0.772	0.769	0.688	0.716	0.902	0.729	0.643	0.663	0.762	0.813	0.746
NCI-H2405	1.05	1.02	1.25	1.08	1.11	0.897	0.836	0.86	0.807	1.32	0.389	0.345	0.448	0.331	0.446	0.757	0.56	0.692	0.597	0.738
SK-LU-1	0.985	0.92	0.913	1	1.02	0.787	1.09	0.835	0.748	0.925	0.515	0.525	0.594	0.595	0.528	0.429	0.516	0.491	0.551	0.52
EMC-BAC-2	0.555	0.442	0.487	0.445	0.459	1.12	1.2	1.12	1.15	1.13	0.527	0.482	0.538	0.471	0.542	1.2	0.811	0.986	0.873	0.945
NCI-H1650	0.404	0.347	0.395	0.339	0.354	1.12	1.2	1.25	1.05	1.08	0.517	0.5	0.513	0.448	0.388	0.718	0.625	0.757	0.598	0.816
NCI-H596	0.512	0.493	0.506	0.51	0.532	1.02	0.987	0.871	0.768	0.696	0.711	0.864	0.785	0.815	0.804	0.701	0.844	0.764	0.694	0.777
LCLC-97TM1	0.16	0.155	0.198	0.184	0.163	0.368	0.384	0.339	0.403	0.478	0.354	0.412	0.431	0.43	0.428	0.267	0.204	0.199	0.196	0.203
H3255	0.609	0.579	0.568	0.64	0.599	0.627	0.532	0.569	0.559	0.582	0.378	0.347	0.381	0.372	0.441	0.699	0.578	0.746	0.614	0.566
LXF-289	0.883	0.893	0.864	0.962	0.894	0.909	0.929	0.945	0.941	0.858	0.514	0.532	0.551	0.513	0.537	0.619	0.716	0.695	0.612	0.662
UMC-11	0.808	0.787	0.838	0.876	0.822	0.364	0.308	0.373	0.297	0.318	0.315	0.327	0.347	0.323	0.344	0.742	0.69	0.793	0.669	0.767
LC-2-ad	0.27	0.29	0.306	0.259	0.269	0.463	0.603	0.403	0.382	0.376	0.644	0.543	0.621	0.517	0.606	0.92	0.903	0.873	0.927	0.815
SK-MES-1	0.941	0.958	0.972	0.966	1.03	1.24	1.21	1.16	1.31	1.27	0.662	0.7	0.69	0.634	0.667	0.531	0.59	0.597	0.567	0.61
